The values that follow come from patent US12257287B2, “Glucagon-derived peptide and use thereof” (Tianjin Institute of Pharmaceutical Research Co., Ltd., priority 2018, dated 2025).

One series addresses T1, human GLP-1 receptor (Homo sapiens, UniProt P43220).
T1 construct: expressed in transfected cells; host or cells: Chinese guinea pig lung cells [sic]
Kind of series: GLP-1 receptor mediated cAMP production in vitro. It is filed as cell-based. The settings on record: cells transfected with human GLP-1 receptor, 20 min at 37° C., read-out: GLP-1R (nM EC50). From the text:
(§1) The medium was removed, the cells were lysed, and cAMP values were detected referring to the detection method described for the assay kit.

The nature of series [1]: Effect on body weight of DIO mice after 14 days' administration. It is filed as in vivo, C57BL/6J mice. Particulars: positive values indicate a decrease. The text has this:
C57BL/6J mice (n=35), model group (n=30) were fed with H10060 high-fat diet to induce obesity (DIO), blank control group (n=5) were fed with standard diet, both for 34 weeks. One day before the first administration, the model group was randomly divided into groups according to their body weight (average body weight range 45.0-52.0 g), with 5 mice in each group, which respectively were model control group, positive control group (semaglutide), and test sample group (1 #-4 # are compound 1, compound 4, compound 6 and compound 22, respectively). The blank control group and model control group were given saline subcutaneously every day, while the positive control group and test sample group were administrated by subcutaneous injection every day for 14 days. The body weight of the animals was weighed and recorded every day, and the change rate of body weight (%) was calculated by comparing the body weight at the last administration day with the initial body weight. (initial body weight−last body weight)/initial body weight=body weight change rate (%). Calculation formula: […]
Calculated positive values indicate a decrease and negative values indicate an increase.
(§2) Methods are the same as that in Example 3, the test results of effects on body weight are shown in Table 5, and the effects on blood glucose are shown in Table 6. In the table, 5 #-9 # are compound 27, compound 35, compound 54, compound 57, and compound 66, respectively.

The next series addresses T2, GC receptor (Homo sapiens, UniProt P47871).
T2 construct: expressed in transfected cells; host or cells: HEK293 cells
In words: GC receptor mediated cAMP production in vitro (HEK293 cells transfected with GC receptor). It is filed as cell-based. The settings on record: 20 min at 37° C., read-out: GCGR (nM EC50).
Text: as §1

A short description of another series: physchem. Format: physicochemical.
The nature of series [2]: Glucose tolerance test in glucose-loaded DIO mice. Format: in vivo. The arrangement: AUC reduction rate (%), Table 6: concentration or dose not given beside the values. As to the method:
DIO mice fasted for 16 h, and 1 h after administration by subcutaneous injection, glucose solution (1 g/kg) was given intraperitoneally for glucose tolerance test. Blood glucose values were measured at 0.5, 1 and 1.5 h after glucose administration. The area under the blood glucose concentration curve (AUC) was calculated and compared with that of the model control group, and the blood glucose inhibition rate (%) was calculated.
as §2

Series [3] can be described thus: Short-term administration: food intake and body weight in DIO mice. Format: in vivo. The settings on record: 30 nmol/kg once every 24 h, twice, − decrease; for Rate of change in food intake (%): at 48 hours vs day before administration; for Body weight change: at 48 hours. In short, it runs like this:
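DIO mice (mean body weight 52.5 g), 5 per group, dosed at 30 nmol/kg every 24 h for two doses, in 10 mM PBS pH 7.4; controls received solvent. Food intake and body weight at 48 h expressed as change rate versus the day before dosing.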

Series [4] is described as follows: Accelerated chemical stability in injection solvent system (HPLC-UV). Format: physicochemical. Particulars: 14 days, phosphate buffer pH 7.3 with Tween 80 and phenol, main peak area vs day 0. How it is done: The chemical stability of the compounds of the present invention in injection solution systems was evaluated by an accelerated stability test. Methods: an appropriate amount of compound of Example 1 was weighed, and dissolved in 10 mM pH8.5 sodium hydrogen phosphate buffer. The final pH value of the solution was adjusted to 7.3 with 0.1 N hydrochloric acid, and proper amounts of Tween 80 and phenol were added. The mixture was placed at 10° C. and 37° C. for 14 days, and detected by HPLC-UV. The main peak area was obtained by peak area normalization method, and the changes compared with day 0 were investigated. The HPLC detection method was the same as that in Example 6, and the mobile phase gradient was appropriately adjusted according to the situation of chromatographic peak separation.

The mark [5] stands for this setting: pH 7.5, Solubility, pH 7.5, 10 mM phosphate buffer.
Setting [6] is: pH 7.5, Solubility, pH 7.5, 20 mM phosphate buffer.

In brackets after ≈: the same amount, converted by molar mass. Marks after values point to notes of the source that are not given here. Numbered stars: 1 amine (or outer) side, 2 acyl side, 3 side chain; on linkers, the order of the positions; unused ones are H or OH. Square brackets hold non-standard residues; d marks the D form. Side chains are listed from the residue outwards. Peptide text beside a SMILES is read from it. * marks the point of attachment. C20 diacid = O=C(O)CCCCCCCCCCCCCCCCCCC(=O)*; C18 diacid = O=C(O)CCCCCCCCCCCCCCCCC(=O)*; γGlu = O=C(O)[C@H](CCC(=O)[*:2])N[*:1]; AEEA = NCCOCCOCC(=O)O; Aib = CC(C)(N)C(=O)O Some results are limits rather than exact numbers.
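Throughout, for Solubility: compound added at 2 mg per mL of phosphate buffer, with the dissolved amount determined in the supernatant.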

T2 sequence (P47871 26-477): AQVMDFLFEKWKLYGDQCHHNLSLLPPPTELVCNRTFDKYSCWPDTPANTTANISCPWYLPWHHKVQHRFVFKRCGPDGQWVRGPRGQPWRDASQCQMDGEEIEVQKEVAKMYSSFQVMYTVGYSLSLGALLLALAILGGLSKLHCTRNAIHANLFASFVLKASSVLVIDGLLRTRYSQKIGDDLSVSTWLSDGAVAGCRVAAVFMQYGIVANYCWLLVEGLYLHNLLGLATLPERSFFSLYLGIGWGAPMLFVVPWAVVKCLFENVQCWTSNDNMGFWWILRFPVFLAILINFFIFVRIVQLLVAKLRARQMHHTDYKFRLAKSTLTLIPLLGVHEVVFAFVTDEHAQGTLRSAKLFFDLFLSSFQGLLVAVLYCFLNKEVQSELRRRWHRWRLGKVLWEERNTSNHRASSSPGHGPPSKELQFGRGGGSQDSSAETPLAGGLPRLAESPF
T1 sequence (P43220 24-463): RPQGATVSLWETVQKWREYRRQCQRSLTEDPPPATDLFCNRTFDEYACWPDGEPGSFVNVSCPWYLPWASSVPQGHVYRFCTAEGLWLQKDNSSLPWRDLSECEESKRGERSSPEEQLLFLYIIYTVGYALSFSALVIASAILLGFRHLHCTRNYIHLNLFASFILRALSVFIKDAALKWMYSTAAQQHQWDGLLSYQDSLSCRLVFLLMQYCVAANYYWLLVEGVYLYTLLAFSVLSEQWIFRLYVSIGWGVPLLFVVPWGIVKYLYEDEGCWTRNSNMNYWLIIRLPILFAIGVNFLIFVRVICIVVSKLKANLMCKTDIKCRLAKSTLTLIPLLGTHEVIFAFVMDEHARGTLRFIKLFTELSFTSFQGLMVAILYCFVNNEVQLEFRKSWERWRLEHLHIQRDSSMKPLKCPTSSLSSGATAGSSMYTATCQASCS

For `CC[C@H](C)[C@H](NC(=O)[C@H](Cc1ccccc1)NC(=O)[C@H](CCC(=O)O)NC(=O)[C@H](CCCCN)NC(=O)[C@H](C)NC(=O)[C@H](C)NC(=O)[C@H](CCCNC(=N)N)NC(=O)[C@H](CCC(=O)O)NC(=O)[C@H](CCC(=O)O)NC(=O)[C@H](CC(C)C)NC(=O)[C@H](Cc1ccc(O)cc1)NC(=O)[C@H](CCCCN)NC(=O)[C@H](CO)NC(=O)[C@H](CCCCNC(=O)COCCOCCNC(=O)COCCOCCNC(=O)CC[C@H](NC(=O)CCCCCCCCCCCCCCCCC(=O)O)C(=O)O)NC(=O)[C@H](CC(=O)O)NC(=O)[C@H](CO)NC(=O)[C@@H](NC(=O)[C@H](Cc1ccccc1)NC(=O)[C@@H](NC(=O)CNC(=O)[C@H](CCC(N)=O)NC(=O)C(C)(C)NC(=O)[C@@H](N)Cc1c[nH]cn1)[C@@H](C)O)[C@@H](C)O)C(=O)N[C@@H](C)C(=O)N[C@@H](Cc1c[nH]c2ccccc12)C(=O)N[C@@H](CC(C)C)C(=O)N[C@@H](CCC(=O)O)C(=O)NCC(=O)NCC(=O)N1CCC[C@H]1C(=O)N[C@@H](CO)C(=O)N[C@@H](CO)C(=O)NCC(N)=O` [Compound 6] (H-H[Aib]QGTFTSDK([AEEA-AEEA-γGlu-C18 diacid])SKYLEERAAKEFIAWLEGGPSSG-NH2; N-terminus assumed), the EC50 on human GLP-1 receptor is 0.439 nM; on GC receptor, 0.052 nM. For the same compound, the “body weight change, Table 5” value in series [1] (Example 4, DIO mice, 14 days' administration, methods as in Example 3) was determined as 28.32. The solubility in “physchem” (setting [5]) is 1390 µg/mL (≈ 321 µM); in “physchem” (setting [6]), 980 µg/mL (≈ 226 µM); in “physchem” (pH 8, Solubility, pH 8.0, 10 mM phosphate buffer), over 2000 µg/mL; in “physchem” (pH 8, Solubility, pH 8.0, 20 mM phosphate buffer), 1620 µg/mL (≈ 374 µM). Moreover, the “AUC of blood glucose, Table 6” value in series [2] (Example 4, DIO mice under glucose load, methods as in Example 3) came to 8.99 ± 1.46 mmol·h/L. For the same compound, the “AUC reduction rate (%), Table 6” value in series [2] (Example 4, compared with model control group, DIO mice under glucose load) was 54.7** %.
Turning to `CCCCCCCCCCCCCCCC(=O)N[C@@H](CCC(=O)N[C@@H](CCC(=O)NCCCC[C@H](NC(=O)[C@H](CC(=O)O)NC(=O)[C@H](CO)NC(=O)[C@@H](NC(=O)[C@H](Cc1ccccc1)NC(=O)[C@@H](NC(=O)CNC(=O)[C@H](CCC(N)=O)NC(=O)C(C)(C)NC(=O)[C@@H](N)Cc1c[nH]cn1)[C@@H](C)O)[C@@H](C)O)C(=O)N[C@@H](CO)C(=O)N[C@@H](CCCCN)C(=O)N[C@@H](Cc1ccc(O)cc1)C(=O)N[C@@H](CC(C)C)C(=O)N[C@@H](CCC(=O)O)C(=O)N[C@@H](CCC(=O)O)C(=O)N[C@@H](CCCNC(=N)N)C(=O)N[C@@H](C)C(=O)N[C@@H](C)C(=O)N[C@@H](CCCCN)C(=O)N[C@@H](CCC(=O)O)C(=O)N[C@@H](Cc1ccccc1)C(=O)N[C@H](C(=O)N[C@@H](C)C(=O)N[C@@H](Cc1c[nH]c2ccccc12)C(=O)N[C@@H](CC(C)C)C(=O)N[C@@H](CCC(=O)O)C(=O)N[C@@H](C)C(=O)NCC(=O)NCC(=O)N1CCC[C@H]1C(=O)N[C@@H](CO)C(=O)N[C@@H](CO)C(=O)NCC(N)=O)[C@@H](C)CC)C(=O)O)C(=O)O` [Compound 1] (HELM PEPTIDE1{H.[Aib].Q.G.T.F.T.S.D.K.S.K.Y.L.E.E.R.A.A.K.E.F.I.A.W.L.E.A.G.G.P.S.S.G.[am]}|PEPTIDE2{[CCCCCCCCCCCCCCCC(=O)[*:2]].[gGlu].[gGlu]}$PEPTIDE1,PEPTIDE2,10:R3-3:R2$$$V2.0; N-terminus assumed), the “body weight change rate, Table 3” value in series [1] (DIO mice, subcutaneous injection every day for 14 days, (initial−last)/initial) is reported as 28.3%. For the same compound, on GC receptor, the EC50 was 0.0574 nM. Also, in the series “physchem” (setting [5]), the solubility is over 2000 µg/mL. The compound further registered a solubility in the series “physchem” (setting [6]) of over 2000 µg/mL. Moreover, the “AUC of blood glucose, Table 4” value in series [2] (DIO mice fasted 16 h, glucose 1 g/kg i.p. 1 h after s.c. administration, 0.5, 1, 1.5 h) was 7.24 ± 1.33 mmol·h/L. Besides, the “AUC reduction rate (%), Table 4” value in series [2] (blood glucose inhibition rate compared with model control group, DIO mice, glucose 1 g/kg i.p.) is reported as 65.8** %. Besides, in series [3], the “Rate of change in food intake (%)” value is −58% and the “Body weight change” value was -2.8 g. Moreover, in series [4], the “Change in purity % (10° C.)” value is reported as −1.4% and the “Change in purity % (37° C.)” value is −5.2%.
Turning to `CC[C@H](C)[C@H](NC(=O)[C@H](Cc1ccccc1)NC(=O)[C@H](CCC(=O)O)NC(=O)[C@H](CCCCN)NC(=O)[C@H](C)NC(=O)[C@H](C)NC(=O)[C@H](CCCNC(=N)N)NC(=O)[C@H](CCC(=O)O)NC(=O)[C@H](CC(=O)O)NC(=O)[C@H](CC(C)C)NC(=O)[C@H](Cc1ccc(O)cc1)NC(=O)[C@H](CCCCN)NC(=O)[C@H](CO)NC(=O)[C@H](CCCCNC(=O)COCCOCCNC(=O)COCCOCCNC(=O)CC[C@H](NC(=O)CCCCCCCCCCCCCCCCC(=O)O)C(=O)O)NC(=O)[C@H](CC(=O)O)NC(=O)[C@H](CO)NC(=O)[C@@H](NC(=O)[C@H](Cc1ccccc1)NC(=O)[C@@H](NC(=O)CNC(=O)[C@H](CCC(N)=O)NC(=O)C(C)(C)NC(=O)[C@@H](N)Cc1c[nH]cn1)[C@@H](C)O)[C@@H](C)O)C(=O)N[C@@H](C)C(=O)N[C@@H](Cc1c[nH]c2ccccc12)C(=O)N[C@@H](CC(C)C)C(=O)N[C@@H](CCC(=O)O)C(=O)NCC(=O)NCC(=O)N1CCC[C@H]1C(=O)N[C@@H](CO)C(=O)N[C@@H](CO)C(=O)NCC(N)=O` [Compound 75] (H-H[Aib]QGTFTSDK([AEEA-AEEA-γGlu-C18 diacid])SKYLDERAAKEFIAWLEGGPSSG-NH2; N-terminus assumed), the EC50 was determined as 0.141 nM on human GLP-1 receptor and 0.087 nM on GC receptor. Also, the solubility in “physchem” (setting [5]) and in the series “physchem” (setting [6]) was over 2000 µg/mL throughout. Further, the “Rate of change in food intake (%)” value in series [3] was −60%. In addition, the “Body weight change” value in series [3] was -2.4 g. For the same compound, the “Change in purity % (10° C.)” value in series [4] was −1.9%. In addition, in series [4], the “Change in purity % (37° C.)” value is −4.5%.
On to `CC[C@H](C)[C@H](NC(=O)[C@H](Cc1ccccc1)NC(=O)[C@H](CCC(=O)O)NC(=O)[C@H](CCCCN)NC(=O)[C@H](C)NC(=O)[C@H](C)NC(=O)[C@H](CCCNC(=N)N)NC(=O)[C@H](CCC(=O)O)NC(=O)[C@H](CC(=O)O)NC(=O)[C@H](CC(C)C)NC(=O)[C@H](Cc1ccc(O)cc1)NC(=O)[C@H](CCCCN)NC(=O)[C@H](CO)NC(=O)[C@H](CCCCNC(=O)COCCOCCNC(=O)COCCOCCNC(=O)CC[C@H](NC(=O)CCCCCCCCCCCCCCCCCCC(=O)O)C(=O)O)NC(=O)[C@H](CC(=O)O)NC(=O)[C@H](CO)NC(=O)[C@@H](NC(=O)[C@H](Cc1ccccc1)NC(=O)[C@@H](NC(=O)CNC(=O)[C@H](CCC(N)=O)NC(=O)C(C)(C)NC(=O)[C@@H](N)Cc1c[nH]cn1)[C@@H](C)O)[C@@H](C)O)C(=O)N[C@@H](C)C(=O)N[C@@H](Cc1c[nH]c2ccccc12)C(=O)N[C@@H](CC(C)C)C(=O)N[C@@H](CCC(=O)O)C(=O)N[C@@H](C)C(=O)NCC(=O)NCC(=O)N1CCC[C@H]1C(=O)N[C@@H](CO)C(=O)N[C@@H](CO)C(=O)NCC(N)=O` [Compound 77] (H-H[Aib]QGTFTSDK([AEEA-AEEA-γGlu-C20 diacid])SKYLDERAAKEFIAWLEAGGPSSG-NH2; N-terminus assumed), for which the EC50 on human GLP-1 receptor turned out to be 0.291 nM. Further, the EC50 on GC receptor is 0.076 nM. In series [3], the “Rate of change in food intake (%)” value was −51% and the “Body weight change” value is -2.9 g.
